Here are results for two compounds from article PMC4466645 (Oncotarget, 2015).

The target in one series is Mer (Homo sapiens, UniProt Q12866). Kind of series: Microfluidic capillary electrophoresis (MCE) enzymatic assay, Mer. In kind it is biochemical. The note with it: ATP at Km.
The target in a further series is Flt3 (Homo sapiens, UniProt P36888). Kind of series: Microfluidic capillary electrophoresis (MCE) enzymatic assay, Flt3. In kind it is biochemical. The following applies: ATP at Km.
Series [1] has as its system AML cell lines expressing Mer or Flt3 internal tandem duplication (ITD). Kind of series: Apoptosis by flow cytometry, AML cell lines expressing Mer or Flt3-ITD (all lines together). The following applies: 72 hours, Mer-expressing or Flt3-ITD cell lines. On the technique in general: Flow cytometry measures light scatter and fluorescence of single cells or particles in a stream.
Procedure: To assess apoptosis, AML cell lines were cultured at 3 × 10^5 cells, and 1 × 10^6 AML patient blasts were co-cultured with 3.5 × 10^5 HS27 cells per condition in 24 well plates, and treated for 72 hours. […] Flow cytometry data were analyzed using Modfit Cell Cycle Analysis software (Verity Software House). In replating assays, cells were similarly plated and treated, then harvested cells were washed twice, and 1.5 × 10^4 viable cells/ml were cultured in cRPMI for six days. Six days after replating, viable myeloblast count was determined by trypan blue exclusion using a Cedex XS Analyzer (Roche).

Details of series [2]: method as in PMID 23693152. The note with it: cited from earlier work.
On the set-up of series [3]: method as in PMID 23693152. The note with it: cited from earlier work. This is another data set of the same source.

Chain of Flt3 (P36888 27-993): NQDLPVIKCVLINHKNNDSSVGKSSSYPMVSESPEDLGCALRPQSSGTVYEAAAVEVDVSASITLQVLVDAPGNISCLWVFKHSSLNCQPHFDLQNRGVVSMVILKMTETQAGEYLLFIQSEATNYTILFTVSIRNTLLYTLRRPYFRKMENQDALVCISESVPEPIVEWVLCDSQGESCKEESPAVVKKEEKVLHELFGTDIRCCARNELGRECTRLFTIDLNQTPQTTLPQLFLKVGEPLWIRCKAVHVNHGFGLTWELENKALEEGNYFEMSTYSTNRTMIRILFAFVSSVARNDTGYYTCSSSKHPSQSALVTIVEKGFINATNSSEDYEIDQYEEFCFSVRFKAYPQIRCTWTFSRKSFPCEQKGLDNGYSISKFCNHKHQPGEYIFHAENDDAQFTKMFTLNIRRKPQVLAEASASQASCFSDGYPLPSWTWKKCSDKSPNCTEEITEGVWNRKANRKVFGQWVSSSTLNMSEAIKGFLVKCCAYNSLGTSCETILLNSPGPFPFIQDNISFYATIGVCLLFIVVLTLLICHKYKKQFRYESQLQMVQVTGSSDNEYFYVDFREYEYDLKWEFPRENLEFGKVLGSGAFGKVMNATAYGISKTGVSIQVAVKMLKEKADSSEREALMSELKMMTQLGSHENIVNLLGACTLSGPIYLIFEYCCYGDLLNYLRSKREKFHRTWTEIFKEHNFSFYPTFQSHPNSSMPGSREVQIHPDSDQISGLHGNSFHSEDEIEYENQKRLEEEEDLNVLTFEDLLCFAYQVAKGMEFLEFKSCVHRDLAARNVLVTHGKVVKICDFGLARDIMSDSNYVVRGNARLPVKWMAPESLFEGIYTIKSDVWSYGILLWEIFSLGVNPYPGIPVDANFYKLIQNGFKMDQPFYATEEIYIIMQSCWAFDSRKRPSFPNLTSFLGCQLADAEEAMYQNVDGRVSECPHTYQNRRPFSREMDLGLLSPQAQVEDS
Chain of Mer (Q12866 21-999): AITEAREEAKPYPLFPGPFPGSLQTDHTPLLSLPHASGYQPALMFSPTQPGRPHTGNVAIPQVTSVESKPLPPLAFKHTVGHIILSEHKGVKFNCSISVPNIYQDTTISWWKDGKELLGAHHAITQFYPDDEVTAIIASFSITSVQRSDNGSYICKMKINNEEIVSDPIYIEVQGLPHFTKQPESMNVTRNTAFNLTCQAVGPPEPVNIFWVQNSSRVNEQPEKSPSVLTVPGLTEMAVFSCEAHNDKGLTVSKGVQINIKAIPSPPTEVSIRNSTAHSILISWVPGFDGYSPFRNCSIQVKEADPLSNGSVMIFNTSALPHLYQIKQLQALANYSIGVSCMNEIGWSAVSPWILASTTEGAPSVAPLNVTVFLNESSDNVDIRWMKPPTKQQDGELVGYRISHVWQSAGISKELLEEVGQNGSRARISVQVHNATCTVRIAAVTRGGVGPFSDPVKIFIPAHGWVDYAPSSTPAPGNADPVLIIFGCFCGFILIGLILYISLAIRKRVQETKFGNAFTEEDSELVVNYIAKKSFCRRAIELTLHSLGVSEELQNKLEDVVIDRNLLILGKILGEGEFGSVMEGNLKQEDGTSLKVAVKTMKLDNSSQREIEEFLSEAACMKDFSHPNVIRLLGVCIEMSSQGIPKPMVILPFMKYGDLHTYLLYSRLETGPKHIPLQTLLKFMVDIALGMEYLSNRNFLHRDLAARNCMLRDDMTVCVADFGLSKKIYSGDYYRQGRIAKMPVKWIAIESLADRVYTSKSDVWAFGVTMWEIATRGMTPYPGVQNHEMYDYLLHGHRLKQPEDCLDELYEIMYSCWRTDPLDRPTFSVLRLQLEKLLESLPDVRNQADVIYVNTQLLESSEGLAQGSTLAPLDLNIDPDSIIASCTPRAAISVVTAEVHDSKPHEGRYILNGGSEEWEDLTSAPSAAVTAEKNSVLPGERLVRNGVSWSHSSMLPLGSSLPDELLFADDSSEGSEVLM

A word on the IC50: it is the point on the concentration scale where inhibition reaches its midpoint. Higher therefore signals weaker potency. For the compound `CCCCN(C)c1ncc2c(-c3ccc(F)cc3)nn(C[C@H]3CC[C@H](N)CC3)c2n1` [UNC1653], the IC50 at Mer was 560 nM; at Flt3 it was 220 nM. Further, the “Induction of apoptosis (in words)” value in series [1] is “did not induce apoptosis”.

For the compound `CCCCNc1ncc2c(-c3ccc(S(=O)(=O)N4CCOCC4)cc3)nn(C3CCC(O)CC3)c2n1` (centres unmarked) [UNC1062], the “Solubility (in words)” value in series [2] is on record as “low solubility”. Further, the “In vivo pharmacokinetic properties (in words)” value in series [3] is listed as “poor in vivo pharmacokinetic properties”.
